Reference: PubChem BioAssay (NCI)
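Exposure lasted 48 hours, with cells grown in 96-well plates and compounds tested at five concentrations. GI50 = concentration required for 50% inhibition of growth. TGI: total growth inhibition.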

Key:
Assay in all cases: inhibition of tumour cell growth, NCI panel, 48 h
[1] = tested on: 786-0 renal
[2] = tested on: A498 renal
[3] = tested on: A549 NSCLC
[4] = tested on: ACHN renal
[5] = tested on: BT-549 breast
[6] = tested on: CAKI-1 renal
[7] = tested on: CCRF-CEM leukemia
[8] = tested on: COLO 205 colon
[9] = tested on: DU-145 prostate
[10] = tested on: EKVX NSCLC
[11] = tested on: HCC-2998 colon
[12] = tested on: HCT-116 colon
[13] = tested on: HCT-15 colon
[14] = tested on: HL-60(TB) leukemia
[15] = tested on: HOP-62 NSCLC
[16] = tested on: HOP-92 NSCLC
[17] = tested on: HS 578T breast
[18] = tested on: HT29 colon
[19] = tested on: IGROV1 ovarian
[20] = tested on: K-562 leukemia
[21] = tested on: KM12 colon
[22] = tested on: LOX IMVI melanoma
[23] = tested on: M14 melanoma
[24] = tested on: MALME-3M melanoma
[25] = tested on: MCF7 breast
[26] = tested on: MDA-MB-231 breast
[27] = tested on: MDA-MB-435
[28] = tested on: MOLT-4 leukemia
[29] = tested on: NCI-H226 lung
[30] = tested on: NCI-H23 lung
[31] = tested on: NCI-H460 lung
[32] = tested on: NCI-H522 lung
[33] = tested on: NCI/ADR-RES ovarian
[34] = tested on: OVCAR-3 ovarian
[35] = tested on: OVCAR-4 ovarian
[36] = tested on: OVCAR-5 ovarian
[37] = tested on: OVCAR-8 ovarian
[38] = tested on: PC-3 prostate
[39] = tested on: RPMI-8226 leukemia
[40] = tested on: RXF 393 renal
[41] = tested on: SF-268 CNS
[42] = tested on: SF-295 CNS
[43] = tested on: SF-539 CNS
[44] = tested on: SK-MEL-2 melanoma
[45] = tested on: SK-MEL-28 melanoma
[46] = tested on: SK-MEL-5 melanoma
[47] = tested on: SK-OV-3 ovarian
[48] = tested on: SN12C renal
[49] = tested on: SNB-19 CNS
[50] = tested on: SNB-75 CNS
[51] = tested on: SR leukemia
[52] = tested on: SW-620 colon
[53] = tested on: T-47D breast
[54] = tested on: TK-10 renal
[55] = tested on: U251 CNS
[56] = tested on: UACC-257 melanoma
[57] = tested on: UACC-62 melanoma
[58] = tested on: UO-31 renal

Compound: CC(=O)/C(Br)=C/c1ccc(Br)o1
- GI50 [1]: 16.5 µM
- TGI [1]: 34.2 µM
- GI50 [2]: 17.4 µM
- TGI [2]: 33.7 µM
- GI50 [3]: 26.8 µM
- TGI [3]: 86.4 µM
- GI50 [4]: 9.5 µM
- TGI [4]: 22.2 µM
- GI50 [5]: 5.94 µM
- TGI [5]: 18.6 µM
- GI50 [6]: 6.05 µM
- TGI [6]: 12.4 µM
- GI50 [7]: 2.04 µM
- TGI [7]: 5.85 µM
- GI50 [8]: 7.55 µM
- TGI [8]: 20.9 µM
- GI50 [9]: 6.19 µM
- TGI [9]: 18.3 µM
- GI50 [10]: 14.6 µM
- TGI [10]: 28.1 µM
- GI50 [11]: 19 µM
- TGI [11]: 36.7 µM
- GI50 [12]: 2.13 µM
- TGI [12]: 5.89 µM
- GI50 [13]: 4.2 µM
- TGI [13]: 16.1 µM
- GI50 [14]: 2.53 µM
- TGI [14]: 8.58 µM
- GI50 [15]: 24.6 µM
- TGI [15]: 59.2 µM
- GI50 [16]: 8.63 µM
- TGI [16]: 23.9 µM
- GI50 [17]: 2.39 µM
- TGI [17]: 7.22 µM
- GI50 [18]: 4.21 µM
- TGI [18]: 14.6 µM
- GI50 [19]: 10.2 µM
- TGI [19]: 29.2 µM
- GI50 [20]: 2.99 µM
- TGI [20]: > 36.5 µM
- GI50 [21]: 12 µM
- TGI [21]: 25.9 µM
- GI50 [22]: 4.35 µM
- TGI [22]: 14.9 µM
- GI50 [23]: 4.71 µM
- TGI [23]: 13.7 µM
- GI50 [24]: 6.15 µM
- TGI [24]: 14.3 µM
- GI50 [25]: 3.67 µM
- TGI [25]: 14.4 µM
- GI50 [26]: 14.8 µM
- TGI [26]: 30 µM
- GI50 [27]: 8.51 µM
- TGI [27]: 23.2 µM
- GI50 [28]: 3.03 µM
- TGI [28]: 15.3 µM
- GI50 [29]: 12.7 µM
- TGI [29]: 26.2 µM
- GI50 [30]: 12.1 µM
- TGI [30]: 41.7 µM
- GI50 [31]: 14.2 µM
- TGI [31]: 30.9 µM
- GI50 [32]: 2.78 µM
- TGI [32]: 8.14 µM
- GI50 [33]: 7.88 µM
- TGI [33]: 38.3 µM
- GI50 [34]: 4.16 µM
- TGI [34]: 14.5 µM
- GI50 [35]: 9.35 µM
- TGI [35]: 22 µM
- GI50 [36]: 13.7 µM
- TGI [36]: 34.4 µM
- GI50 [37]: 3.33 µM
- TGI [37]: > 35.8 µM
- GI50 [38]: 8.94 µM
- TGI [38]: 27.1 µM
- GI50 [39]: 4.73 µM
- TGI [39]: 13.1 µM
- GI50 [40]: 2.86 µM
- TGI [40]: 11 µM
- GI50 [41]: 7.58 µM
- TGI [41]: 23.6 µM
- GI50 [42]: 18.7 µM
- TGI [42]: 38.7 µM
- GI50 [43]: 5 µM
- TGI [43]: 10.8 µM
- GI50 [44]: 8.59 µM
- TGI [44]: 23.9 µM
- GI50 [45]: 2.87 µM
- TGI [45]: 9.18 µM
- GI50 [46]: 10.3 µM
- TGI [46]: 22.6 µM
- GI50 [47]: 26.8 µM
- TGI [47]: > 65.8 µM
- GI50 [48]: 8.11 µM
- TGI [48]: 26.7 µM
- GI50 [49]: 26 µM
- TGI [49]: > 59.6 µM
- GI50 [50]: 10.3 µM
- TGI [50]: 33.3 µM
- GI50 [51]: 1.72 µM
- TGI [51]: 5.42 µM
- GI50 [52]: 2.1 µM
- TGI [52]: 4.87 µM
- GI50 [53]: 8.89 µM
- TGI [53]: 24.2 µM
- GI50 [54]: 5.42 µM
- TGI [54]: 17.9 µM
- GI50 [55]: 14.4 µM
- TGI [55]: 27.8 µM
- GI50 [56]: 6.05 µM
- TGI [56]: 19.2 µM
- GI50 [57]: 14 µM
- TGI [57]: 28.3 µM
- GI50 [58]: 10.2 µM
- TGI [58]: 29.1 µM

Compound: N#Cc1nc(C#N)c(Sc2ccccc2)c(Sc2ccccc2)c1Sc1ccccc1
- GI50 [1]: 0.392 µM
- GI50 [2]: 2.72 µM
- TGI [2]: 7.05 µM
- GI50 [4]: 0.395 µM
- TGI [4]: 1.79 µM
- GI50 [5]: 0.21 µM
- TGI [5]: 4.27 µM
- GI50 [6]: 1.22 µM
- TGI [6]: > 100 µM
- GI50 [7]: 0.417 µM
- TGI [7]: > 100 µM
- GI50 [8]: 0.719 µM
- TGI [8]: 2.03 µM
- GI50 [9]: 0.667 µM
- TGI [9]: 2.88 µM
- GI50 [10]: 1.25 µM
- TGI [10]: > 100 µM
- GI50 [11]: 2.24 µM
- TGI [11]: 4.66 µM
- GI50 [12]: 0.301 µM
- GI50 [13]: 0.574 µM
- TGI [13]: 3.21 µM
- GI50 [14]: 1.88 µM
- TGI [14]: > 29.5 µM
- TGI [15]: > 20 µM
- GI50 [16]: 2.52 µM
- TGI [16]: 20.9 µM
- GI50 [17]: 0.463 µM
- TGI [17]: > 100 µM
- GI50 [18]: 0.407 µM
- GI50 [19]: 0.732 µM
- TGI [19]: 2.3 µM
- GI50 [20]: 1.55 µM
- TGI [20]: > 29.9 µM
- GI50 [21]: 1.67 µM
- TGI [21]: 3.26 µM
- GI50 [22]: 0.17 µM
- TGI [22]: 0.344 µM
- GI50 [24]: 1.48 µM
- TGI [24]: 5.04 µM
- GI50 [25]: 0.565 µM
- TGI [25]: 2.41 µM
- GI50 [26]: 0.296 µM
- TGI [26]: 0.773 µM
- GI50 [27]: 0.684 µM
- TGI [27]: 7.17 µM
- GI50 [28]: 0.317 µM
- GI50 [29]: 2.42 µM
- GI50 [30]: 0.36 µM
- TGI [30]: 2.35 µM
- GI50 [31]: 2.35 µM
- TGI [31]: > 27.6 µM
- GI50 [32]: 0.208 µM
- TGI [32]: 0.645 µM
- GI50 [33]: 0.504 µM
- TGI [33]: > 100 µM
- GI50 [34]: 1.45 µM
- TGI [34]: 2.89 µM
- GI50 [35]: 2.74 µM
- TGI [35]: > 27.8 µM
- GI50 [36]: 2.34 µM
- TGI [36]: 4.68 µM
- GI50 [37]: 0.287 µM
- TGI [37]: 0.911 µM
- GI50 [38]: 0.753 µM
- TGI [38]: 21.5 µM
- GI50 [39]: 0.638 µM
- TGI [39]: > 28.3 µM
- GI50 [40]: 0.98 µM
- TGI [40]: 3.22 µM
- GI50 [41]: 0.331 µM
- TGI [41]: 1.03 µM
- GI50 [42]: 2.75 µM
- TGI [42]: > 29.1 µM
- GI50 [43]: 0.399 µM
- TGI [43]: 1.31 µM
- GI50 [44]: 2.17 µM
- TGI [44]: > 21.6 µM
- GI50 [45]: 1.48 µM
- TGI [45]: 2.89 µM
- GI50 [46]: 1.31 µM
- TGI [46]: 2.69 µM
- GI50 [47]: 3.27 µM
- TGI [47]: 9.01 µM
- GI50 [48]: 0.191 µM
- TGI [48]: 0.378 µM
- GI50 [49]: 2.5 µM
- TGI [49]: 5.9 µM
- GI50 [50]: 2.42 µM
- TGI [50]: > 29.3 µM
- GI50 [51]: 0.305 µM
- TGI [51]: > 100 µM
- GI50 [52]: 0.232 µM
- TGI [52]: 0.5 µM
- GI50 [53]: 0.584 µM
- TGI [53]: 2.48 µM
- GI50 [54]: 0.502 µM
- TGI [54]: 3.43 µM
- GI50 [55]: 0.51 µM
- TGI [55]: 1.86 µM
- GI50 [56]: 1.37 µM
- TGI [56]: 2.94 µM
- GI50 [57]: 1.37 µM
- TGI [57]: 3.2 µM
- GI50 [58]: 0.415 µM
- TGI [58]: 1.08 µM
